Assay results from the NIST ThermoML archive (doi:10.1021/je501054c).

Assay: mn = molality of the nth substance listed, in mol/kg
Details: 100 kPa, Liquid; for viscosity: Capillary tube (Ostwald / Ubbelohde) method; for mass density: Vibrating tube method

CCCCCCn1cc[n+](C)c1.[Cl-] [1-hexyl-3-methylimidazolium chloride] + CC#N
Details	mass density, 298.15 K [kg/m3]	mass density, 303.15 K [kg/m3]	mass density, 308.15 K [kg/m3]	mass density, 313.15 K [kg/m3]	viscosity, 298.15 K [mPa·s]
m1 = 0.0205	777.74	772.53	764.33	756.52	–
m1 = 0.022	–	–	–	–	0.3485
m1 = 0.041	778.81	773.62	765.43	757.67	–
m1 = 0.0461	–	–	–	–	0.3524
m1 = 0.06	779.78	774.61	766.44	758.72	–
m1 = 0.0622	–	–	–	–	0.3551
m1 = 0.0809	780.84	775.69	767.53	759.86	–
m1 = 0.0814	–	–	–	–	0.3589
m1 = 0.1002	781.8	776.66	768.53	760.89	–
m1 = 0.1057	–	–	–	–	0.3631
m1 = 0.1197	782.75	777.64	769.5	761.94	–
m1 = 0.123	–	–	–	–	0.367
m1 = 0.1374	783.62	778.51	770.4	762.83	–
m1 = 0.1423	–	–	–	–	0.3696
m1 = 0.1544	784.44	779.33	771.23	763.72	–
m1 = 0.1606	–	–	–	–	0.3741
m1 = 0.1788	785.56	780.48	772.4	764.93	–
m1 = 0.181	–	–	–	–	0.3776
m1 = 0.1969	786.4	781.33	773.26	765.84	–
m1 = 0.2045	–	–	–	–	0.3813

CCC[n+]1ccn(C)c1.[Br-] [1-methyl-3-propylimidazolium bromide] + CC#N
Details	mass density, 298.15 K [kg/m3]	mass density, 303.15 K [kg/m3]	mass density, 308.15 K [kg/m3]	mass density, 313.15 K [kg/m3]	viscosity, 298.15 K [mPa·s]
m1 = 0.0248	778.67	773.46	763.49	757.41	–
m1 = 0.0251	–	–	–	–	0.3488
m1 = 0.0422	–	–	–	–	0.3525
m1 = 0.0423	780.09	774.88	764.92	758.84	–
m1 = 0.0636	781.79	776.59	766.63	760.57	–
m1 = 0.0644	–	–	–	–	0.3573
m1 = 0.081	783.18	777.98	768.02	761.96	–
m1 = 0.0816	–	–	–	–	0.3607
m1 = 0.1036	784.95	779.74	769.8	763.74	–
m1 = 0.1051	–	–	–	–	0.3633
m1 = 0.123	786.44	781.24	771.31	765.27	–
m1 = 0.1245	–	–	–	–	0.3675
m1 = 0.1437	788.02	782.86	772.93	766.87	–
m1 = 0.1461	–	–	–	–	0.3724
m1 = 0.1636	789.52	784.35	774.44	768.39	–
m1 = 0.1667	–	–	–	–	0.3771
m1 = 0.1835	791.02	785.84	775.93	769.89	–
m1 = 0.1873	–	–	–	–	0.38
m1 = 0.2042	792.57	787.39	777.47	771.44	–
m1 = 0.2082	–	–	–	–	0.3844
